Laboratory results as given in PMC5917093, “Brain Transport Profiles of Ginsenoside Rb1 by Glucose Transporter 1: In Vitro and in Vivo” (Frontiers in Pharmacology, 2018).
Where two headings read alike, the source gives them in different places.

Assays:
[1] = test system: rBMEC (primary cultured rat brain microvascular endothelial cells); assay: Uptake of Rb1 by primary cultured rBMEC (time course, temperature, concentration dependence, Michaelis-Menten kinetics); assay type: in vitro ADME
Protocol: Isolation and culture of rat brain microvessel endothelial cells were operated according to previous studies with some modifications ([Liu et al., 2013]). The isolated rBMEC was seeded in cultured flasks coated with 2% gelatin and cultured in culture medium. The culture medium consisted of DMEM/F12 supplemented with 20% FBS, 2 mM L-glutamine, heparin (50 mg/L), 100 IU/mL penicillin, 100 μg/mL streptomycin, and NaHCO3 (0.5 g/L). On the first day after seeding, the culture medium was replaced, after which the culture medium was replaced every 2 days. At 5–6 days, the rBMEC was transferred to 6-well plates coated with gelatin and cultured in an incubator with a saturated humidity at 37°C in 5% CO2 and 95% air. Transport studies were performed when cells reached 100% confluency. The endothelial phenotype of the rBMEC was identified by staining for the endothelial cell marker vWF using a confocal laser scanning microscope (Leica TCS SP8).
When rBMEC was grown to 100% confluency in gelatin-coated 6-well plates, uptake experiments were performed. Briefly, the cultured cell monolayer was washed three times with 1 mL of pH 7.4 Hanks’ balanced salt solution (HBSS). The cultured rBMEC was pre-incubated for 30 min in 1 mL HBSS at 37 or 4°C. After pre-incubation, the HBSS solution was removed by suction, and HBSS (1 mL) containing 60 μg/mL Rb1 was added to initiate uptake. Then the cells were incubated at 37 or 4°C at a set time (5, 10, 15, 30, 60, 120, and 240 min). After the end of the incubation, the incubation solution was aspirated and the monolayers were carefully washed three times with 1 mL ice-cold HBSS to terminate the uptake. Then, 0.5 mL ultrapure water was added to each incubated well, and the material in the wells was frozen (at -80°C)/thawed (at room temperature) repeatedly four times to lyse cells. After the solubilized, the monolayer supernatants were collected and 10 μL was injected into LC–MS/MS to determine Rb1 concentration. The protein contents of the cell monolayers were measured by the method of Bradford using BSA as the standard ([Bradford, 1976]). Uptake was expressed as the cell-to-medium ratio (μL/mg protein or μL/mg protein/min) and termed the volume of distribution (Vd), obtained by dividing the uptake amount by the concentration of substrate in the transport medium. Vd is derived from the ratio of ng/mg protein to ng/μL buffer.
The uptake data were fitted to the above equation by nonlinear least-squares regression analysis with Graphpad Prism 5.0 software.
(§1) HPLC–MS/MS was composed by a Shimadzu LC-20A chromatographic system and an API 4000 mass spectrometer equipped with electrospray ionization (ESI) source system. MS/MS detection was performed on an API 4000 mass spectrometer using multiple reaction monitoring (MRM) mode by monitoring the fragmentation of m/z 1107.6 → 179.0 for Rb1 and m/z 779.4 → 345.2 for digoxin (IS). Chromatographic separations were carried out on a Shim-pack XD-ODS column (2.0 mm × 30 mm, 2.2 μm) with a Shim-pack GVD-ODS (2.0 mm × 5 mm, 4.6 μm) guard column (Shimadzu, Japan) at a flow rate of 0.28 mL/min using 10 mM acetic acid in water (phase A) and methanol (phase B) as mobile phase. A linear step gradient elution was performed as followed: phase B was increased from 45 to 90% within the first 3 min, and decreased to 45% within the next 3 min (total gradient time: 6 min). A 10 μL sample was injected into the system with the auto-sample conditioned at 4°C and column temperature maintained at 40°C.
The biological samples (100 μL) were placed in a 1.5 mL Eppendorf tube, and mixed with 10 μL IS solution (500 ng/mL) for 3 min by vortexing. The mixture was extracted with methanol (0.9 mL) by vortexing, and then centrifuged at 14,000 rpm for 5 min. The supernatant (0.8 mL) was transferred to a new 1.5 mL Eppendorf tube and evaporated to dryness under vacuum. The dried residue was reconstituted with 100 μL methanol, vortex-mixed for 30 s, and centrifuged at 14,000 rpm for 5 min. […]

[2] = Effect of phloretin on distribution of Rb1 in plasma and brain of normal rats; assay type: in vivo, rat; settings: Rb1 10 mg/kg i.v.; for concentration at 0.5 h / concentration at 2 h / concentration at 6 h: rat
Protocol: Rats were randomly divided into two groups in 36 of each group. One group served as the control and another group were treated with phloretin. Dose of phloretin was set to be 5 mg/kg. Rb1 (10 mg/kg, i.v.) was administered to the experimental rats after i.v. administration of phloretin or saline for consecutive 1 week. Six rats from each group were selected and the blood samples were collected into heparinized Eppendorf tubes via the abdominal aorta at 0.5, 2, and 6 h after Rb1 administration. Then, brain samples were immediately collected. The plasma samples were obtained by centrifuging at 1000 × g for 10 min. Plasma and brain samples were frozen at -80°C until analysis.
as §1
The biological samples (100 μL) were placed in a 1.5 mL Eppendorf tube, and mixed with 10 μL IS solution (500 ng/mL) for 3 min by vortexing. The mixture was extracted with methanol (0.9 mL) by vortexing, and then centrifuged at 14,000 rpm for 5 min. The supernatant (0.8 mL) was transferred to a new 1.5 mL Eppendorf tube and evaporated to dryness under vacuum. The dried residue was reconstituted with 100 μL methanol, vortex-mixed for 30 s, and centrifuged at 14,000 rpm for 5 min. Finally, 10 μL of the supernatant liquid was immediately subjected to HPLC–MS/MS analysis. The system control and data analysis were performed by AB Sciex Analyst software (the software version: Analyst 1.5.1). Retention time for Rb1 was tR = 3.80 ± 0.01 min and for IS digoxin tR = 3.13 ± 0.01 min. The lowest limits of quantitation of Rb1 in cell lysate, plasma, and brain homogenate were 1, 2.5, and 1 ng/mL, respectively. The recoveries were higher than 90%; the relative standard deviations (SD) of intra-day and inter-day were lower than 10%.

[3] = design: method as in Li et al., 2007; settings: rats, TPNS injection 10.0 mg/kg intravenous; ref Li et al., 2007; cited from earlier work
[4] = 7.5-960 μg/mL Rb1, 37°C, 120 min, Michaelis-Menten fit

SMILES: CC(C)=CCC[C@](C)(O[C@@H]1O[C@H](CO[C@@H]2O[C@H](CO)[C@@H](O)[C@H](O)[C@H]2O)[C@@H](O)[C@H](O)[C@H]1O)[C@H]1CC[C@]2(C)[C@@H]1[C@H](O)C[C@@H]1[C@@]3(C)CC[C@H](O[C@@H]4O[C@H](CO)[C@@H](O)[C@H](O)[C@H]4O[C@@H]4O[C@H](CO)[C@@H](O)[C@H](O)[C@H]4O)C(C)(C)[C@@H]3CC[C@]12C [Rb1, Ginsenoside Rb1]
- intracellular amounts of Rb1 at 37°C relative to 4°C ([1]; 60 μg/mL Rb1): about two to threefold
- time at which steady-state uptake occurred ([1]; 60 μg/mL Rb1, 37°C): 120 min
- Km [1, 4]: 119 ± 15.6 µM
- Vmax of Rb1 uptake [1, 4]: 0.0034 ± 0.0003 nmol/(mg protein ⋅ min)
- nonsaturable component (Pdiff) of Rb1 transport ([1]; 37°C): 0.0023 μL/(mg protein ⋅ min)
- share of total Rb1 uptake accounted for by the saturable component ([1]; low concentration range): 90%
- Brain-to-plasma concentration ratio (Kp) ([2]; 0.5 h, phloretin-treated (5 mg/kg i.v., 1 week)): 2.15 ± 0.19 μL/g brain
- Brain-to-plasma concentration ratio (Kp) ([2]; 0.5 h, untreated normal rats): 7.09 ± 1.01 μL/g brain
- Brain-to-plasma concentration ratio (Kp) ([2]; 2 h, phloretin-treated (5 mg/kg i.v., 1 week)): 2.56 ± 0.06 μL/g brain
- Brain-to-plasma concentration ratio (Kp) ([2]; 2 h, untreated normal rats): 4.9 ± 0.35 μL/g brain
- Brain-to-plasma concentration ratio (Kp) ([2]; 6 h, phloretin-treated (5 mg/kg i.v., 1 week)): 1.59 ± 0.005 μL/g brain
- Brain-to-plasma concentration ratio (Kp) ([2]; 6 h, untreated normal rats): 3.24 ± 0.53 μL/g brain
- concentration at 0.5 h ([2]; brain, intravenous, 0.5 h, phloretin-treated (5 mg/kg i.v., 1 week), read-out: Brain concentration): 105 ± 15.1 ng/g
- concentration at 2 h ([2]; brain, intravenous, 2 h, phloretin-treated (5 mg/kg i.v., 1 week), read-out: Brain concentration): 84.8 ± 4.1 ng/g
- concentration at 6 h ([2]; brain, intravenous, 6 h, phloretin-treated (5 mg/kg i.v., 1 week), read-out: Brain concentration): 39.9 ± 4.9 ng/g
- concentration at 0.5 h ([2]; brain, iv, 0.5 h, untreated normal rats, read-out: Brain concentration): 490 ± 58.3 ng/g
- concentration at 2 h ([2]; brain, iv, 2 h, untreated normal rats, read-out: Brain concentration): 194 ± 11.1 ng/g
- concentration at 6 h ([2]; brain, iv, 6 h, untreated normal rats, read-out: Brain concentration): 114 ± 24 ng/g
- concentration at 0.5 h ([2]; plasma, intravenous, 0.5 h, phloretin-treated (5 mg/kg i.v., 1 week), read-out: Plasma concentration): 48700 ± 2900 ng/mL
- concentration at 2 h ([2]; plasma, intravenous, 2 h, phloretin-treated (5 mg/kg i.v., 1 week), read-out: Plasma concentration): 33200 ± 1400 ng/mL
- concentration at 6 h ([2]; plasma, intravenous, 6 h, phloretin-treated (5 mg/kg i.v., 1 week), read-out: Plasma concentration): 27000 ± 1500 ng/mL
- concentration at 0.5 h ([2]; plasma, iv, 0.5 h, untreated normal rats, read-out: Plasma concentration): 69300 ± 4500 ng/mL
- concentration at 2 h ([2]; plasma, iv, 2 h, untreated normal rats, read-out: Plasma concentration): 39700 ± 4100 ng/mL
- concentration at 6 h ([2]; plasma, iv, 6 h, untreated normal rats, read-out: Plasma concentration): 35200 ± 3000 ng/mL
- duration in brain tissue [3]: ~24 h
- largest content in brain tissue [3]: about 1.4 μg/g
